In ChEMBL document CHEMBL1201862, “PubChem BioAssay data set” (2004):
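Tested at 5 concentrations; 48 h exposure; 96-well plates; endpoints linearly interpolated, else capped at highest concentration. The concentration for 50% growth inhibition is given as GI50.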 Activity calls are given as the source filed them. Cut-off read from the data, not from the text of the source: active = GI50 up to about 1.1 µM and inactive = higher.

Key:
Test in all cases: NCI tumour cell line growth inhibition, 48 h
786-0 = system: 786-0
A549 = system: A549
ACHN = system: ACHN
BT-549 = system: BT-549
CAKI-1 = system: CAKI-1
CCRF-CEM = system: CCRF-CEM
COLO 205 = system: COLO 205
DU-145 = system: DU-145
EKVX = system: EKVX
HCT-116 = system: HCT-116
HCT-15 = system: HCT-15
HL-60 = system: HL-60
HOP-92 = system: HOP-92
HT-29 = system: HT-29
Hs-578T = system: Hs-578T
IGROV-1 = system: IGROV-1
K562 = system: K562
KM12 = system: KM12
M14 = system: M14
MCF7 = system: MCF7
MDA-MB-231 = system: MDA-MB-231
MDA-MB-435 = system: MDA-MB-435
MDA-N = system: MDA-N
MOLT-4 = system: MOLT-4
Malme-3M = system: Malme-3M
NCI-H226 = system: NCI-H226
NCI-H23 = system: NCI-H23
NCI-H460 = system: NCI-H460
NCI-H522 = system: NCI-H522
NCI/ADR-RES = system: NCI/ADR-RES
OVCAR-4 = system: OVCAR-4
OVCAR-5 = system: OVCAR-5
OVCAR-8 = system: OVCAR-8
PC-3 = system: PC-3
RPMI-8226 = system: RPMI-8226
RXF 393 = system: RXF 393
SF-268 = system: SF-268
SF-295 = system: SF-295
SF-539 = system: SF-539
SK-MEL-2 = system: SK-MEL-2
SK-MEL-5 = system: SK-MEL-5
SK-OV-3 = system: SK-OV-3
SN12C = system: SN12C
SNB-19 = system: SNB-19
SNB-75 = system: SNB-75
SR = system: SR
SW-620 = system: SW-620
T47D = system: T47D
TK-10 = system: TK-10
U-251 = system: U-251
UACC-257 = system: UACC-257
UACC-62 = system: UACC-62
UO-31 = system: UO-31
HCC 2998 = system: HCC 2998
HOP-62 = system: HOP-62
OVCAR-3 = system: OVCAR-3
SK-MEL-28 = system: SK-MEL-28
A498 = system: A498
LOX IMVI = system: LOX IMVI

For `CC(NC(=O)Cc1ccccc1)NC(=O)C(C)C(=O)NCc1ccccc1` (stereo not given), the GI50 (786-0) was > 100 µM (inactive), the GI50 (A549) was > 100 µM (inactive) and the GI50 (ACHN) was 52.2 µM (inactive). The GI50 (BT-549) was 27.9 µM (inactive), the GI50 (CAKI-1) was 81.7 µM (inactive) and the GI50 (CCRF-CEM) was > 100 µM (inactive). For the same compound, the GI50 (COLO 205) was > 100 µM (inactive), the GI50 (DU-145) was > 100 µM (inactive) and the GI50 (EKVX) was > 100 µM (inactive). For the same compound, the GI50 (HCT-116) was > 100 µM (inactive), the GI50 (HCT-15) was > 100 µM and the GI50 (HL-60) was > 100 µM (inactive). The GI50 (HOP-92) was 31.4 µM (inactive), the GI50 (HT-29) was > 100 µM (inactive) and the GI50 (Hs-578T) was 30.3 µM (inactive). For the same compound, the GI50 (IGROV-1) was 50.9 µM (inactive), the GI50 (K562) was > 100 µM (inactive) and the GI50 (KM12) was > 100 µM (inactive). The GI50 (M14) was > 100 µM (inactive), the GI50 (MCF7) was > 100 µM (inactive) and the GI50 (MDA-MB-231) was 46.8 µM (inactive). For the same compound, the GI50 (MDA-MB-435) was > 100 µM (inactive), the GI50 (MDA-N) was > 100 µM (inactive) and the GI50 (MOLT-4) was > 100 µM (inactive). For the same compound, the GI50 (Malme-3M) was > 100 µM (inactive), the GI50 (NCI-H226) was 21.7 µM (inactive) and the GI50 (NCI-H23) was > 100 µM (inactive). For the same compound, the GI50 (NCI-H460) was > 100 µM (inactive), the GI50 (NCI-H522) was > 100 µM (inactive) and the GI50 (NCI/ADR-RES) was > 100 µM (inactive). For the same compound, the GI50 (OVCAR-4) was > 100 µM (inactive), the GI50 (OVCAR-5) was > 100 µM (inactive) and the GI50 (OVCAR-8) was 32.4 µM (inactive). For the same compound, the GI50 (PC-3) was > 100 µM (inactive), the GI50 (RPMI-8226) was > 100 µM (inactive) and the GI50 (RXF 393) was 42.6 µM (inactive). The GI50 (SF-268) was 33.3 µM (inactive), the GI50 (SF-295) was 21.7 µM (inactive) and the GI50 (SF-539) was 82.4 µM (inactive). For the same compound, the GI50 (SK-MEL-2) was 75.3 µM (inactive), the GI50 (SK-MEL-5) was > 100 µM (inactive) and the GI50 (SK-OV-3) was 53.6 µM (inactive). The GI50 (SN12C) was 53.5 µM (inactive), the GI50 (SNB-19) was 23.7 µM (inactive) and the GI50 (SNB-75) was 38.8 µM (inactive). The GI50 (SR) was > 100 µM (inactive), the GI50 (SW-620) was > 100 µM (inactive) and the GI50 (T47D) was > 100 µM (inactive). The GI50 (TK-10) was 45.4 µM (inactive), the GI50 (U-251) was 50.6 µM (inactive) and the GI50 (UACC-257) was > 100 µM (inactive). The GI50 (UACC-62) was > 100 µM (inactive) and the GI50 (UO-31) was 42.6 µM (inactive).
In the case of `Cc1ccc(NC(=S)NNC(=O)c2cc(-c3ccccc3)nc3ccccc23)cc1`, the GI50 (786-0) is reported as 13 µM (inactive), the GI50 (A549) is reported as 11.9 µM (inactive) and the GI50 (ACHN) is reported as 16.3 µM (inactive). The GI50 (BT-549) was 15.7 µM (inactive), the GI50 (CAKI-1) was 18 µM (inactive) and the GI50 (COLO 205) was 16 µM (inactive). The GI50 (DU-145) was 12.9 µM (inactive), the GI50 (HCC 2998) was 10.8 µM (inactive) and the GI50 (HCT-116) was 8.59 µM (inactive). For the same compound, the GI50 (HCT-15) was 7.13 µM, the GI50 (HOP-62) was 13.2 µM (inactive) and the GI50 (HOP-92) was 11.8 µM (inactive). For the same compound, the GI50 (HT-29) was 24 µM (inactive), the GI50 (Hs-578T) was 17.4 µM (inactive) and the GI50 (IGROV-1) was 15.2 µM (inactive). The GI50 (K562) was 13.4 µM (inactive), the GI50 (KM12) was 11.1 µM (inactive) and the GI50 (M14) was 11.9 µM (inactive). For the same compound, the GI50 (MCF7) was 11.2 µM (inactive), the GI50 (MDA-MB-231) was 18.5 µM (inactive) and the GI50 (MDA-MB-435) was 2.81 µM (inactive). For the same compound, the GI50 (MDA-N) was 4.26 µM (inactive), the GI50 (MOLT-4) was 14.3 µM (inactive) and the GI50 (Malme-3M) was 6.35 µM (inactive). The GI50 (NCI-H226) was 18.7 µM (inactive), the GI50 (NCI-H23) was 12.6 µM (inactive) and the GI50 (NCI-H460) was 18.7 µM (inactive). For the same compound, the GI50 (NCI-H522) was 14.7 µM (inactive), the GI50 (NCI/ADR-RES) was 14 µM (inactive) and the GI50 (OVCAR-3) was 7.89 µM (inactive). The GI50 (OVCAR-4) was 17.9 µM (inactive), the GI50 (OVCAR-5) was 15.4 µM (inactive) and the GI50 (OVCAR-8) was 18.3 µM (inactive). The GI50 (PC-3) was 12 µM (inactive), the GI50 (RPMI-8226) was 4.59 µM (inactive) and the GI50 (RXF 393) was 12.8 µM (inactive). The GI50 (SF-268) was 15.8 µM (inactive), the GI50 (SF-295) was 5.92 µM (inactive) and the GI50 (SF-539) was 15.7 µM (inactive). The GI50 (SK-MEL-28) was 5.96 µM (inactive), the GI50 (SK-MEL-2) was 10.3 µM (inactive) and the GI50 (SK-MEL-5) was 10.4 µM (inactive). The GI50 (SK-OV-3) was 16.5 µM (inactive), the GI50 (SN12C) was 16.2 µM (inactive) and the GI50 (SNB-19) was 16.7 µM (inactive). The GI50 (SNB-75) was 12.2 µM (inactive), the GI50 (SR) was 3.18 µM (inactive) and the GI50 (SW-620) was 10.4 µM (inactive). The GI50 (T47D) was 3.21 µM (inactive), the GI50 (TK-10) was 14 µM (inactive) and the GI50 (U-251) was 5.68 µM (inactive). The GI50 (UACC-257) was 14.4 µM (inactive), the GI50 (UACC-62) was 12.5 µM (inactive) and the GI50 (UO-31) was 12.7 µM (inactive).
For `CC(C)=CCC[C@H](C)[C@H]1CC[C@@H](C)c2cc(O)c(C)cc21`, the GI50 (786-0) was 18.6 µM (inactive), the GI50 (A498) was 16.6 µM (inactive) and the GI50 (A549) was 17.1 µM (inactive). The GI50 (ACHN) was 16.8 µM (inactive), the GI50 (BT-549) was 17.9 µM (inactive) and the GI50 (CAKI-1) was 15.7 µM (inactive). The GI50 (CCRF-CEM) was 22.9 µM (inactive), the GI50 (COLO 205) was 18.3 µM (inactive) and the GI50 (DU-145) was 19.5 µM (inactive). The GI50 (EKVX) was 17.6 µM (inactive), the GI50 (HCC 2998) was 18.9 µM (inactive) and the GI50 (HCT-116) was 18.4 µM (inactive). For the same compound, the GI50 (HCT-15) was 18.3 µM, the GI50 (HL-60) was 21.1 µM (inactive) and the GI50 (HOP-62) was 19.1 µM (inactive). For the same compound, the GI50 (HOP-92) was 16.7 µM (inactive), the GI50 (HT-29) was 20.6 µM (inactive) and the GI50 (Hs-578T) was 19.9 µM (inactive). For the same compound, the GI50 (IGROV-1) was 17.1 µM (inactive), the GI50 (K562) was 20.1 µM (inactive) and the GI50 (KM12) was 17.3 µM (inactive). The GI50 (LOX IMVI) was 16.3 µM (inactive), the GI50 (M14) was 18.4 µM (inactive) and the GI50 (MCF7) was 17.5 µM (inactive). For the same compound, the GI50 (MDA-MB-231) was 18.2 µM (inactive), the GI50 (MDA-MB-435) was 18.6 µM (inactive) and the GI50 (MDA-N) was 17.4 µM (inactive). The GI50 (MOLT-4) was 21.4 µM (inactive), the GI50 (Malme-3M) was 18.6 µM (inactive) and the GI50 (NCI-H226) was 18 µM (inactive). For the same compound, the GI50 (NCI-H23) was 18.1 µM (inactive), the GI50 (NCI-H460) was 18.4 µM (inactive) and the GI50 (NCI-H522) was 17.4 µM (inactive). For the same compound, the GI50 (NCI/ADR-RES) was 19.5 µM (inactive), the GI50 (OVCAR-3) was 18.8 µM (inactive) and the GI50 (OVCAR-4) was 15.5 µM (inactive). The GI50 (OVCAR-5) was 16.1 µM (inactive), the GI50 (OVCAR-8) was 18.5 µM (inactive) and the GI50 (PC-3) was 17.4 µM (inactive). The GI50 (RPMI-8226) was 26.1 µM (inactive), the GI50 (RXF 393) was 20.7 µM (inactive) and the GI50 (SF-268) was 16.8 µM (inactive). The GI50 (SF-295) was 16.9 µM (inactive), the GI50 (SF-539) was 17.8 µM (inactive) and the GI50 (SK-MEL-28) was 18.5 µM (inactive). For the same compound, the GI50 (SK-MEL-2) was 17 µM (inactive), the GI50 (SK-MEL-5) was 16.2 µM (inactive) and the GI50 (SK-OV-3) was 19.1 µM (inactive). The GI50 (SN12C) was 15.9 µM (inactive), the GI50 (SNB-19) was 16.6 µM (inactive) and the GI50 (SNB-75) was 19.1 µM (inactive). The GI50 (SW-620) was 23.1 µM (inactive), the GI50 (T47D) was 16.9 µM (inactive) and the GI50 (TK-10) was 18.4 µM (inactive). For the same compound, the GI50 (U-251) was 17.1 µM (inactive), the GI50 (UACC-257) was 17.4 µM (inactive) and the GI50 (UACC-62) was 14.5 µM (inactive). The GI50 (UO-31) was 14 µM (inactive).
